Literature values, collected in US20080138388A1 (priority 2005, published 2008).
Read-outs that look alike come from different tables or passages of the source.

| logP (octanol-water partition coefficient, free state) | SMILES | logP (octanol-water partition coefficient, free state) (free state) |
| --- | --- | --- |
|  | Nc1c(Br)cc(Br)cc1CN[C@H]1CC[C@H](O)CC1 [ambroxol] | 3.00 |
|  | CCCN1C[C@H](CSC)C[C@@H]2c3cccc4[nH]cc(c34)C[C@H]21 [pergolide] | 4.07 |
|  | OC(CCN1CCCCC1)(c1ccccc1)c1ccccc1 [pridinol] | 3.79 |
|  | CCOc1ccccc1OCCN[C@H](C)Cc1ccc(OC)c(S(N)(=O)=O)c1 [tamsulosin] | 3.22 |
| 4.00 | CCOC(=O)[C@H](CCc1ccccc1)N[C@@H](C)C(=O)N1[C@H](C(=O)O)C[C@H]2CCCC[C@@H]21 [trandopril] |  |
